Laboratory results from patent US12115159B2, “Pharmaceutical composition for preventing or treating nonalcoholic fatty liver disease, containing GPR119 ligand as active ingredient” (DONG-A ST CO., LTD., priority 2018, dated 2024).

Columns and labels:
[1] = test system: ob/ob mouse with induced non-alcoholic steatohepatitis; experiment: Histological examination of liver (HE, Masson's Trichrome / Sirius stain) in ob/ob mouse model with induced non-alcoholic steatohepatitis; type: in vivo; conditions: 100 mg/kg/day mixed in special diet for 10 weeks, vs. Ob-NASH
Protocol: (§1) A six-week-old male ob/ob mouse with leptin deficiency was fed with a special diet containing high fat, high fructose, and high cholesterol for 10 weeks, and thus was induced to develop non-alcoholic steatohepatitis. A mixed form of diet was prepared so that a daily dose of (3-(4-(3-(1-(5-ethylpyrimidin-2-yl)piperidin-4-yl)propoxy)-2,6-difluorophenyl)-5-isopropyl-1,2,4-oxadiazole (hereinafter, “compound 1”) reaches 100 mg/kg/day in the compound represented by the chemical formula 1, and supplied to the mouse from a time point of starting the supply of the special diet for 10 weeks.
For a histological examination, the prepared mouse model with induced non-alcoholic steatohepatitis was subjected to autopsy to fix an isolated liver tissue in 10% formalin and prepare a paraffin block, thereby obtaining a 2 μm-thick tissue section. To confirm infiltration of inflammatory cells, Hematoxylin and Eosin (HE) stain was performed using an automatic staining machine (Autostainner XL, Leica), and the results thereof are shown in FIGS. 1 and 2.
Then, for evaluation of fibrosis, fibers in liver tissue were specifically stained by using Masson's Trichrome stain or Sirius Res stain, and the results thereof are shown in FIGS. 2 and 3.

[2] = test system: ob/ob mouse with induced non-alcoholic steatohepatitis; experiment: AST and ALT measurement in blood, ob/ob NASH mouse model; type: in vivo; conditions: 100 mg/kg/day mixed in special diet for 10 weeks, plasma, vs. Ob-NASH, FIG. 4
Protocol: as §1
The mouse model with induced non-alcoholic steatohepatitis was subjected to autopsy, after which plasma was separated therefrom, so as to quantify aspartate aminotransferase (AST) and alanine aminotransferase (ALT) by using an automatic blood analyzer (Konelab 20i), and the results thereof are shown in FIG. 4.

[3] = test system: ob/ob mouse with induced non-alcoholic steatohepatitis; experiment: Concentration of proteins associated with inflammation and fibrosis in liver tissues (ELISA), ob/ob NASH mouse model; type: in vivo; conditions: 100 mg/kg/day mixed in special diet for 10 weeks, vs. Ob-NASH, FIG. 5
Protocol: as §1
To evaluate an effect on the expression of inflammation-related genes and fibrosis-related proteins in liver tissues, the liver tissues obtained from the mouse model were put into RIPA buffer (Cell Signaling) and pulverized with TissueLyser II™ (Quiagen), after which a total protein concentration was quantified with Pierce BCA Protein Assay Kit (Thermo Fisher Scientific) and a protein concentration of Mouse Ccl2 (=Mcp1; R&D Systems, MJE00) and Timp1 (R&D Systems, MTM100) in the liver tissues was quantified by using a commercially available ELISA kit, so that the results thereof are shown in FIG. 5.

[4] = test system: ob/ob mouse with induced non-alcoholic steatohepatitis; experiment: Expression of genes associated with inflammation and fibrosis in liver tissues (real-time PCR), ob/ob NASH mouse model; type: in vivo; conditions: 100 mg/kg/day mixed in special diet for 10 weeks, FIG. 6
Protocol: as §1
To measure an expression level of inflammation-related genes and fibrosis-related genes in liver tissues, Trizol® (Invitrogen) was added to the liver tissues collected from the mouse model, after which a total RNA was extracted from the tissues according to the method provided by the manufacturer, and then cDNA was synthesized by using a reverse transcriptase. Then, a real-time polymerase chain reaction was performed in LightCycler®480 Instrument II (RocheLifeScience) equipment by using a reagent of SYBR Green I Master Mix (Roche, 04707516001), and the results thereof are shown in FIG. 6.

human monocytes (THP-1) = experiment: Effect on differentiation of human monocytes into macrophages (IL-1β secretion, ELISA); type: cell-based; conditions: THP-1 co-treated with compound during PMA (50 ng/ml) differentiation for 48 hours, then LPS (0.5 ng/ml) for four hours; FIG. 8
Protocol: (§2) Then, THP-1 monocytes were treated with PMA (50 ng/ml) for 48 hours to be differentiate into macrophages, while the compound 1 was co-treated, then replaced with serum-free medium, and then treated with lipopolysaccharides (LPS, 0.5 ng/ml) for four hours so as to quantity interleukin-1β (IL-1β, R&D Systems, DY201) secreted into the medium by using a commercialized ELISKA kit and evaluate an effect on the differentiation of monocytes, so that the results thereof are shown in FIG. 8.

[5] = test system: differentiated macrophages (THP-1); experiment: Effect on activation of differentiated macrophages by LPS (IL-1β secretion, ELISA); type: cell-based, human; conditions: differentiated macrophages treated with compound for 48 hours, then LPS; FIG. 9
Protocol: as §2
In addition, after treating the differentiated macrophages with the compound 1 for 48 hours, the secreted IL-1β was quantified by the same method as above with regard to the activation of immune cells by LPS, so as to evaluate an effect on the activation of differentiated macrophages.

[6] = test system: C57BL/6J mouse with induced non-alcoholic steatohepatitis; experiment: Histological examination (HE) and triglyceride content of liver, C57BL/6J DIO-NASH mouse model; type: in vivo; conditions: Compd1 (H) group, in special diet for eight weeks after induction, vs. DIO-NASH, FIGS. 10 and 11
Protocol: (§3) A six-week-old male C57BL/6J mouse was fed with a special diet comprising high fat, high fructose, and high cholesterol for at least 26 weeks, and thus was induced to develop non-alcoholic steatohepatitis. It was confirmed that fatty liver and inflammatory fibrosis are induced through a biopsy of liver tissues three weeks before drug supply, and mice were evenly distributed into each group based on the area of collagen stained in the liver tissues. A feed was prepared by mixing the compounds according to the present invention in a special diet and supplied for additional eight weeks. According to the diet supplied to the mice, each of the groups was classified as a control group fed with a normal diet (Normal), a positive control group in which mice with induced non-alcoholic steatohepatitis due to the special diet were not supplied with a drug (DIO-NASH), and a group in which mice with induced non-alcoholic steatohepatitis were supplied with the compound 1 in an amount of 30 mg/kg/day (L) and […] (H) (Cmpd1 (L) and Cmpd1 (H), respectively).
For a histological examination, the prepared C57BL/6J mouse model was subjected to autopsy to fix an isolated liver tissue in 10% formalin and prepare a paraffin block, thereby obtaining a 2 μm-thick tissue section. […]

[7] = test system: C57BL/6J mouse with induced non-alcoholic steatohepatitis; experiment: NAFLD activity score (NAS) before and after administration, C57BL/6J DIO-NASH mouse model; type: in vivo; conditions: compound in special diet for eight weeks, FIG. 12
Protocol: as §3

[8] = test system: C57BL/6J mouse with induced non-alcoholic steatohepatitis; experiment: Evaluation of fibrosis (Sirius stain, type I collagen immunostaining), C57BL/6J DIO-NASH mouse model; type: in vivo; conditions: C57BL/6J DIO-NASH_Compd1, compound in special diet for eight weeks, vs. DIO-NASH; FIGS. 13 and 14
Protocol: as §3
Then, for the evaluation of fibrosis, the fibers of the liver tissues were specifically stained with Sirius Res stain in the mice of each group, and a content of type I collagen in the liver tissues was measured by an imaging analysis method after immunostaining, so that the results thereof are shown in FIGS. 13 and 14.

[9] = test system: C57BL/6J mouse with induced non-alcoholic steatohepatitis; experiment: AST and ALT measurement in blood, C57BL/6J DIO-NASH mouse model; type: in vivo; conditions: C57BL/6J DIO-NASH_Compd1, compound in special diet for eight weeks, plasma, vs. DIO-NASH; FIG. 15
Protocol: as §3
Each of the mouse groups was subjected to autopsy, after which plasma was separated therefrom, so as to quantity aspartate aminotransferase (AST) and alanine aminotransferase (ALT) by using an automatic blood analyzer (Konelab 20i).

[10] = test system: C57BL/6J mouse with induced non-alcoholic steatohepatitis; experiment: Change in gene expression in liver tissues (RNAseq), C57BL/6J DIO-NASH mouse model; type: in vivo; conditions: C57BL/6J DIO-NASH_Compd1, eight weeks after drug administration, vs. DIO-NASH, FIG. 16
Protocol: as §3
To analyze a change in total gene expression in liver tissues isolated from the above mouse model in eight weeks after drug administration, the isolated RNA fraction was used to generate a library by using NeoPrep (Illumina), and subjected to RNAseq profiling through NexSeq 500 (Illumina), after which bioinformatics analysis was performed and changes in major gene groups were classified for each function, so that the results thereof are shown in FIG. 16.

With `CCc1cnc(N2CCC(CCCOc3cc(F)c(-c4noc(C(C)C)n4)c(F)c3)CC2)nc1` [compound 1, 3-(4-(3-(1-(5-ethylpyrimidin-2-yl)piperidin-4-yl)propoxy)-2,6-difluorophenyl)-5-isopropyl-1,2,4-oxadiazole] the “infiltration of inflammatory cells in liver tissues” value ([1]; FIGS. 1 and 2) was “significantly inhibited”, the “fibrosis of liver tissues” value ([1]; FIGS. 2 and 3) was “significantly inhibited” and the “ALT level in blood” value [2] was “significant inhibition of increase”. For the same compound, the “AST level in blood” value [2] was “significant inhibition of increase”, the “protein level of Ccl2 (=Mcp1) in liver tissues” value [3] was “significantly inhibited” and the “protein level of Timp1 in liver tissues” value [3] was “significantly inhibited”. The “increase in expression of fibrosis-related genes (Tgfb1, Col1a, Timp1, Timp2, Acta2) in liver tissues” value [4] was “significantly inhibited”, the “increase in expression of inflammation-related genes (Ccl2, Lgals3, Tnfa) in liver tissues” value [4] was “significantly inhibited” and the “IL-1β secretion caused by activation of macrophages” value (human monocytes (THP-1)) was “decreased in a concentration-dependent manner”. For the same compound, the “IL-1β secretion caused by activation of macrophages” value [5] was “decreased in a concentration-dependent manner”, the “fat deposits in liver tissues” value [6] was “significant decrease” and the “infiltration of inflammatory cells in liver tissues” value [6] was “significant decrease”. The “worsening of disease by NAFLD activity score (NAS), before vs. after administration” value ([7]; C57BL/6J DIO-NASH, disease worsened in 50% of the DIO-NASH group) was “no individual was deteriorated”, the “share of group in which the disease was ameliorated by NAFLD activity score (NAS)” value ([7]; C57BL/6J DIO-NASH_Compd1 group) was “about 50%” and the “cross-linking formation in fibers of the liver tissues” value [8] was “remarkable decrease”. The “type I collagen in liver tissues” value [8] was “significant decrease”, the “concentration of ALT in blood” value [9] was “significantly inhibited increase” and the “concentration of AST in blood” value [9] was “significantly inhibited increase”. For the same compound, the “expression of fibrosis markers in liver tissues” value [10] was “remarkable decrease”, the “expression of macrophage markers in liver tissues” value [10] was “remarkable decrease” and the “expression of monocyte attractants in liver tissues” value [10] was “remarkable decrease”.
